Experiments:
Type in all cases: cell-based
HER2 S310F [1] = target: T1, HER2 S310F (Homo sapiens, UniProt P04626, S310F); assay: Activity for inhibiting HER2 (Table B), HER2 S310F; conditions: read-out: HER2 S310F, potency code (IC50)
T1 construct: expressed in transfected cells; host or cells: BaF3 (murine pro-B)
Description: (§1) EC50 values were determined with the same application.

EGFR SVD [2] = target: T2, EGFR SVD (Homo sapiens, UniProt P00533, DUP768-770); assay: Activity for inhibiting EGFR (Table A), EGFR SVD; conditions: read-out: EGFR SVD, potency code (IC50)
T2 construct: expressed in transfected cells; host or cells: BaF3 (murine pro-B), retroviral pMXs-IRES-Blasticidin
T2 sequence (P00533 with tags, fused parts or gaps DUP768-770): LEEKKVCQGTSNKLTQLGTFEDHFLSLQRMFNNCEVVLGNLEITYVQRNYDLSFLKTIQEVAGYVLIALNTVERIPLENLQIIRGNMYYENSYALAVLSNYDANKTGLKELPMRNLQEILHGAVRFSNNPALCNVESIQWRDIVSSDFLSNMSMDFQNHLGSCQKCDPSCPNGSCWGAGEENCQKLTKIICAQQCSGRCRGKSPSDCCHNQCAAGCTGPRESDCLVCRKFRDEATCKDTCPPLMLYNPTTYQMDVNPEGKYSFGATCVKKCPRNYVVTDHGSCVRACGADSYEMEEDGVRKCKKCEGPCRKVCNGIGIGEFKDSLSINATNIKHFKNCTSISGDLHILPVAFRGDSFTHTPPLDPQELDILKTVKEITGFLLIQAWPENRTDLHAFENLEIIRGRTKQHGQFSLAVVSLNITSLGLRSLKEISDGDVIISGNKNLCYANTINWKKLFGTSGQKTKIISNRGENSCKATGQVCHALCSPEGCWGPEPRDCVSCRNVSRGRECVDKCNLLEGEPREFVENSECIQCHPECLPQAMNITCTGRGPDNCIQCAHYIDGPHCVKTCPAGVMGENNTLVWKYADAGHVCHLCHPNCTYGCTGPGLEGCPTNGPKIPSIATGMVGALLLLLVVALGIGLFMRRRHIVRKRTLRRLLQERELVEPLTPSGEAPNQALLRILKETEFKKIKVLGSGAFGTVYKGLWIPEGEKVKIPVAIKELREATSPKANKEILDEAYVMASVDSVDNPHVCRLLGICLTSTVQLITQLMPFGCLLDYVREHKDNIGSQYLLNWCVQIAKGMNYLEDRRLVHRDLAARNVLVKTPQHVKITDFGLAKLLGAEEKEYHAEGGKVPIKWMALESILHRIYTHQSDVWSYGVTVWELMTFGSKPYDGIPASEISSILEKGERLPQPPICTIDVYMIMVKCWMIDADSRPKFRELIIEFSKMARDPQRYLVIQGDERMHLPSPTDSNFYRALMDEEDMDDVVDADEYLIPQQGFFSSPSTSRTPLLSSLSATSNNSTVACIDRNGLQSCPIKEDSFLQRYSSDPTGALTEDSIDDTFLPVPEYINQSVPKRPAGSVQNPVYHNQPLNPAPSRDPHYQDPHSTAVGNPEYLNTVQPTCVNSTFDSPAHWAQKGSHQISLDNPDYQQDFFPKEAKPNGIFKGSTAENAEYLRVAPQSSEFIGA

HER2 WT [3] = target: T3, HER2 WT (Homo sapiens, UniProt P04626); assay: Activity for inhibiting HER2 (Table B), HER2 WT
EGFR SVD [4] = target: T2, EGFR SVD; assay: BaF3 cell proliferation assay, EGFR SVD (Table A); conditions: potency code, 3 days, CellTiterGlo, read-out: EGFR SVD (Activity for Inhibiting EGFR)
Description: (§2) Retroviral Production: EGFR mutants were subcloned into pMXs-IRES-Blasticidin (RTV-016, Cell Biolabs, San Diego, Calif.). Retroviral expression vector retrovirus was produced by transient transfection of HEK 293T cells with the retroviral EGFR mutant expression vector pMXs-IRES-Blasticidin (RTV-016, Cell Biolabs), pCMV-Gag-Pol vector and pCMV-VSV-G-Envelope vector. Briefly, HEK 293T/17 cells were plated in 100 mm collagen coated plate (354450, Corning Life Sciences, Tewksbury, Mass.) (4×10^5 per plate) and incubated overnight. The next day, retroviral plasmids (3 μg of EGFR mutant, 1.0 μg of pCMV-Gag-Pol and 0.5 μg pCMV-VSV-G) were mixed in 500 μl of Optimem (31985, Life Technologies). The mixture was incubated at room temperature for 5 min and then added to Optimem containing transfection reagent Lipofectamine (11668, Invitrogen) and incubated for 20 minutes. Mixture was then added dropwise to HEK 293T cells. The next day the medium was replaced with fresh culture medium and retrovirus was harvested @ 24 and 48 hrs.
(§3) Generation of EGFR mutant stable cell lines: BaF3 cells (1.5E5 cells) were infected with 1 ml of viral supernatant supplemented with 8 μg/ml polybrene by centrifuging for 30 min at 1000 rpm. Cells were placed in a 37° C. incubator overnight. Cells were then spun for 5 minutes to pellet the cells. Supernatant was removed and cells re-infected a fresh 1 ml of viral supernatant supplemented with 8 μg/ml polybrene by centrifuging for 30 min at 1000 rpm. Cells were placed in 37° C. incubator overnight. […] After 48 hours cells were selected for retroviral infection in 10 μg/ml Blasticidin for one week. Blasticidin resistant populations were washed twice in phosphate buffered saline before plating in media lacking IL-3 to select for IL-3 independent growth.
as §1

HER2 S310F [5] = target: T1, HER2 S310F; assay: BaF3 cell proliferation assay, HER2 S310F (Table B); conditions: potency code, 3 days, CellTiterGlo, read-out: HER2 S310F (Activity for Inhibiting HER2)
EGFR NPH [6] = target: T4, EGFR NPH (Homo sapiens, UniProt P00533, DUP771-773); assay: BaF3 cell proliferation assay, EGFR NPH (Table A); conditions: potency code, 3 days, CellTiterGlo, read-out: EGFR NPH (Activity for Inhibiting EGFR)
T4 construct: expressed in transfected cells; host or cells: BaF3 (murine pro-B), retroviral pMXs-IRES-Blasticidin
T4 sequence (P00533 with tags, fused parts or gaps DUP771-773): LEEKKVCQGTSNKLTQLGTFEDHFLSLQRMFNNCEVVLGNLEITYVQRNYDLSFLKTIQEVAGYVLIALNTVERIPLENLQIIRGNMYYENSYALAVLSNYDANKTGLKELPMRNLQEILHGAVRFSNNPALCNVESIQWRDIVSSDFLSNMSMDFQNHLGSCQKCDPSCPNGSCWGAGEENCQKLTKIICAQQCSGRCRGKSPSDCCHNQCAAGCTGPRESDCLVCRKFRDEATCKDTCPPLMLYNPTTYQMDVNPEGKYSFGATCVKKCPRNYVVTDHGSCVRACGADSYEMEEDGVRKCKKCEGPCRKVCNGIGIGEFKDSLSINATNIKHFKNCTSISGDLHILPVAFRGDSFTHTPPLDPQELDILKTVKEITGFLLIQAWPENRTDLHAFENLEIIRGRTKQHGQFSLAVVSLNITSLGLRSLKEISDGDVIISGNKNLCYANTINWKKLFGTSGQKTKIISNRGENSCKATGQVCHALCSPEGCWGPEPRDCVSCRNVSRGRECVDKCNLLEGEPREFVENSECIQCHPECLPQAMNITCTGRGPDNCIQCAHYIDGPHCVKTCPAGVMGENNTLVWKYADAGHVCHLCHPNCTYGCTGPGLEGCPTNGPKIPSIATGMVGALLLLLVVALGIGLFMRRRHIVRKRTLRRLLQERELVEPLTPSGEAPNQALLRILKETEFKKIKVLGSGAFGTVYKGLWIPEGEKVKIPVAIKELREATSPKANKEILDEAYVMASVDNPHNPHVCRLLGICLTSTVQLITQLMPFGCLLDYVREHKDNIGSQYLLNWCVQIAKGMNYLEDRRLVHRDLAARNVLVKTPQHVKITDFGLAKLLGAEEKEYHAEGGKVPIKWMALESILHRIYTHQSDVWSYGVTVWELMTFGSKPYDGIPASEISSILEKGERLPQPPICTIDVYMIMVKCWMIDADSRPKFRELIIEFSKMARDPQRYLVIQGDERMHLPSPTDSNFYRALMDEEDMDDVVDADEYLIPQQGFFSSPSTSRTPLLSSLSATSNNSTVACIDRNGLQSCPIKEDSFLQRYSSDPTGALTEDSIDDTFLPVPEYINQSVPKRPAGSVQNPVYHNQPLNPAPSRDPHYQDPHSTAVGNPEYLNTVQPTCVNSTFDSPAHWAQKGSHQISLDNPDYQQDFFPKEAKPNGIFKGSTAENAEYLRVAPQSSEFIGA
Description: as §2, §3, §1

EGFR WT [7] = target: T5, EGFR WT (Homo sapiens, UniProt P00533); assay: Activity for inhibiting EGFR (Table A), EGFR WT; conditions: read-out: EGFR WT, potency code (IC50)
T5 sequence (P00533 25-1210 N540K): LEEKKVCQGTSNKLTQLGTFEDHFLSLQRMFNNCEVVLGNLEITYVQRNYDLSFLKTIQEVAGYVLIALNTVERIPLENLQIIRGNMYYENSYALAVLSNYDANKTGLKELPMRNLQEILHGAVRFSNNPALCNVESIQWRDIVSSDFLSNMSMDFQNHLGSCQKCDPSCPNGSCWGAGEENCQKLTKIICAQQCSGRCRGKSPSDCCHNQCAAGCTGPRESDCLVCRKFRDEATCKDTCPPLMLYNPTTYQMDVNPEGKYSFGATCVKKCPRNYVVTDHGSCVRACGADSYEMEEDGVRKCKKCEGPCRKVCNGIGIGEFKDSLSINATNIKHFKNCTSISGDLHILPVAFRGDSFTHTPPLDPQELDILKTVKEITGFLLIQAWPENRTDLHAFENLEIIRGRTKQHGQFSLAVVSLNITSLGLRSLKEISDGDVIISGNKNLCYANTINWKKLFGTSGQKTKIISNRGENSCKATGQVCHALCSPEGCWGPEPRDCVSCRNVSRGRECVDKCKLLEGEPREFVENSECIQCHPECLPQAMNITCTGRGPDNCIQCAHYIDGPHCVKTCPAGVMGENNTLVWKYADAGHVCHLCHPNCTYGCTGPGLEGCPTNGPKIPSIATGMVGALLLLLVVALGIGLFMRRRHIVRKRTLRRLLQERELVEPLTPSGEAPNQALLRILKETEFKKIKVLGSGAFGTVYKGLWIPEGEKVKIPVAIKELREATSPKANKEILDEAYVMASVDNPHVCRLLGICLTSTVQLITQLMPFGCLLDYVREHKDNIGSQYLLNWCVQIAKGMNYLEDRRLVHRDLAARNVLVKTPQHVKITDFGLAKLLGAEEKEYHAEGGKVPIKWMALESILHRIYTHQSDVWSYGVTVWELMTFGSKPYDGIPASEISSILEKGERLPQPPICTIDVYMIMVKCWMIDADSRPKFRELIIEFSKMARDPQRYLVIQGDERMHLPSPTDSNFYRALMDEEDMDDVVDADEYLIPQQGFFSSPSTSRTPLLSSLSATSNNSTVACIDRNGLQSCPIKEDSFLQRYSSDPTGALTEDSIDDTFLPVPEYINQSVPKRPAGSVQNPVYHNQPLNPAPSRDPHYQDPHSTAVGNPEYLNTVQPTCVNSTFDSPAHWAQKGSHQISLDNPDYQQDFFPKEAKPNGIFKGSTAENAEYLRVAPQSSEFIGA

EGFR WT [8] = target: T5, EGFR WT; assay: BaF3 cell proliferation assay, EGFR WT (Table A); conditions: potency code, 3 days, CellTiterGlo, read-out: EGFR WT (Activity for Inhibiting EGFR)
Method in brief: (§4)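 Steps: HEK 293T transfected with pMXs-IRES-Blasticidin kinase vector plus Gag-Pol and VSV-G; virus harvested at 24 and 48 hrs; BaF3 infected twice by centrifugation, Blasticidin-selected, then grown without IL-3. Proliferation EC50 measured.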

EGFR V3 [9] = target: T6, EGFR V3 (Homo sapiens, UniProt P00533, DELINS30-297G); assay: BaF3 cell proliferation assay, EGFR V3 (Table A); conditions: potency code, 3 days, CellTiterGlo, read-out: EGFR V3 (Activity for Inhibiting EGFR)
T6 construct: expressed in transfected cells; host or cells: BaF3 (murine pro-B), retroviral pMXs-IRES-Blasticidin
Method in brief: as §4

EGFR NPH [10] = target: T4, EGFR NPH; assay: Activity for inhibiting EGFR (Table A), EGFR NPH; conditions: read-out: EGFR NPH, potency code (IC50)
HER2 WT [11] = target: T3, HER2 WT; assay: BaF3 cell proliferation assay, HER2 WT (Table B); conditions: potency code, 3 days, CellTiterGlo, read-out: HER2 WT (Activity for Inhibiting HER2)
EGFR V3 [12] = target: T6, EGFR V3; assay: Activity for inhibiting EGFR (Table A), EGFR V3 (EGFR-Viii); conditions: read-out: EGFR V3, potency code (IC50)
HER2 YVMA [13] = target: T7, HER2 YVMA (Homo sapiens, UniProt P04626, INS775YVMA); assay: BaF3 cell proliferation assay, HER2 YVMA (Table B); conditions: potency code, 3 days, CellTiterGlo, read-out: HER2 YVMA (Activity for Inhibiting HER2)
T7 construct: expressed in transfected cells; host or cells: BaF3 (murine pro-B)

HER2 YVMA [14] = target: T7, HER2 YVMA; assay: Activity for inhibiting HER2 (Table B), HER2 YVMA; conditions: read-out: HER2 YVMA, potency code (IC50)
Description: as §1

[15] = Table B, read-out: HER2 WT, potency code (IC50)
[16] = text lists of compounds, read-out: IC50 value for inhibiting wild-type HER2

T1 sequence (P04626 23-1255 S310F): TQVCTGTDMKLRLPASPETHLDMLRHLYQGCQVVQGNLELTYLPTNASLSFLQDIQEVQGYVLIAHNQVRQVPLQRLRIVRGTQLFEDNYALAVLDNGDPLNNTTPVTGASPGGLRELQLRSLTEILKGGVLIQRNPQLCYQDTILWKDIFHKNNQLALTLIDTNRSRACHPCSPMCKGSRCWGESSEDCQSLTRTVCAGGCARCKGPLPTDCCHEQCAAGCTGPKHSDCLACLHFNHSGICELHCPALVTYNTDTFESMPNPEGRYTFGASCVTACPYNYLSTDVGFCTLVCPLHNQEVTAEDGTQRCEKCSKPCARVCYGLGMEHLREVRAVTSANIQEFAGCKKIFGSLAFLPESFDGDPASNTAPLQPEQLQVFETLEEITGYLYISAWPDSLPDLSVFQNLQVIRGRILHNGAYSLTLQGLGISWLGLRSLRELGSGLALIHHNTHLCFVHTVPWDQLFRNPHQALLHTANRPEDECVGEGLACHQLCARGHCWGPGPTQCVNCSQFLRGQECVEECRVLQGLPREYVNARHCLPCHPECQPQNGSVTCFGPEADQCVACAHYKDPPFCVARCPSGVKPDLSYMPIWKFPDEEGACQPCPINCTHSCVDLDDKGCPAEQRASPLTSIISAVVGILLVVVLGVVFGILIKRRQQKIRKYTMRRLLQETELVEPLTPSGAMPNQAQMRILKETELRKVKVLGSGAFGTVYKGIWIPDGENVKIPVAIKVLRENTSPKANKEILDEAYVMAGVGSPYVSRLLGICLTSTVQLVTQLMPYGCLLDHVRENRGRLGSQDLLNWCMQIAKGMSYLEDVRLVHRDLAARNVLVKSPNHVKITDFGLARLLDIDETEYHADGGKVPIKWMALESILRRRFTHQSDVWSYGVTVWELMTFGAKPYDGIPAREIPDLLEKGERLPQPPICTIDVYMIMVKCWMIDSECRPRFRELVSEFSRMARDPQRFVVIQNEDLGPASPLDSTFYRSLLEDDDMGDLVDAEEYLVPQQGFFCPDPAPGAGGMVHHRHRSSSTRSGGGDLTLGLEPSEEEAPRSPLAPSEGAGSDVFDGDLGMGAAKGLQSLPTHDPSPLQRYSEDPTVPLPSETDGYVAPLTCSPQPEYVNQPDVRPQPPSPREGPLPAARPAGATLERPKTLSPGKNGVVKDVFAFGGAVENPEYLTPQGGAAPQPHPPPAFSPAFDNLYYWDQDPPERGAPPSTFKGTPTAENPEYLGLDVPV

SMILES | IC50 (HER2 S310F [1]) [nM] | IC50 (EGFR SVD [2]) [nM] | IC50 (HER2 WT [3]; [15]) [nM] | IC50 (HER2 WT [3]; [16]) [nM] | IC50 (EGFR SVD [4]) [nM] | IC50 (HER2 S310F [5]) [nM] | IC50 (EGFR NPH [6]) [nM] | IC50 (EGFR WT [7]) [nM] | IC50 (EGFR WT [8]) [nM] | IC50 (EGFR V3 [9]) [nM] | IC50 (EGFR NPH [10]) [nM] | IC50 (HER2 WT [11]) [nM] | IC50 (EGFR V3 [12]) [nM] | IC50 (HER2 YVMA [13]) [nM] | IC50 (HER2 YVMA [14]) [nM]
C=CC(=O)Nc1cc2c(Nc3ccc(OCc4ccccn4)c(Cl)c3)c(C#N)cnc2cc1OCCN1CCOCC1 [compound 11] | 50 to 100 | 300 to 500 | 30 to 50 | ≤ 50 | 300 to 500 | 50 to 100 | 300 to 500 | 300 to 500 | 300 to 500 | 50 to 100 | 300 to 500 | 30 to 50 | 50 to 100 | – | –
C=CC(=O)Nc1cc2c(Nc3ccc(OCc4ccccn4)c(Cl)c3)ncnc2cc1OCC1CCCN1 (centres unmarked) [compound 13] | 30 to 50 | 200 to 300 | 5 to 10 | ≤ 20 | 200 to 300 | 30 to 50 | 300 to 500 | 300 to 500 | 300 to 500 | 50 to 100 | 300 to 500 | 5 to 10 | 50 to 100 | 300 to 500 | 300 to 500
C=CC(=O)Nc1cc2c(Nc3ccc(OCc4ccccn4)c(Cl)c3)ncnc2cc1O[C@@H]1CCN(C)C1 [compound 17] | 5 to 10 | 10 to 20 | < 5 | ≤ 5 | 10 to 20 | 5 to 10 | 20 to 30 | 200 to 300 | 200 to 300 | 10 to 20 | 20 to 30 | < 5 | 10 to 20 | 30 to 50 | 30 to 50
C=CC(=O)Nc1cc2c(Nc3ccc(OCc4ccccn4)c(Cl)c3)ncnc2cc1OCCN(C)C [compound 19] | 20 to 30 | 100 to 200 | 5 to 10 | ≤ 10 | 100 to 200 | 20 to 30 | 100 to 200 | 200 to 300 | 200 to 300 | 20 to 30 | 100 to 200 | 5 to 10 | 20 to 30 | 100 to 200 | 100 to 200
C=CC(=O)Nc1cc2c(Nc3ccc(OCc4ccccn4)c(Cl)c3)ncnc2cc1OCCCN1CC2CC1CO2 (centres unmarked) [compound 20] | 10 to 20 | 10 to 20 | < 5 | ≤ 10 | 10 to 20 | 10 to 20 | 10 to 20 | 200 to 300 | 200 to 300 | 20 to 30 | 10 to 20 | < 5 | 20 to 30 | 10 to 20 | 10 to 20
C=CC(=O)Nc1cc2c(Nc3ccc(OCc4ccccn4)c(Cl)c3)ncnc2cc1OCCCN1CCCC1 [compound 22] | 5 to 10 | 10 to 20 | < 5 | ≤ 5 | 10 to 20 | 5 to 10 | 20 to 30 | 50 to 100 | 50 to 100 | 20 to 30 | 20 to 30 | < 5 | 20 to 30 | 30 to 50 | 30 to 50
C=CC(=O)Nc1cc2c(Nc3ccc(OCc4ccccn4)c(Cl)c3)ncnc2cc1C#CC(C)(C)N1CCN(C)CC1 [compound 65] | 10 to 20 | – | 10 to 20 | ≤ 20 | – | 10 to 20 | – | 500 to 1000 | 500 to 1000 | 20 to 30 | – | 10 to 20 | 20 to 30 | 50 to 100 | 50 to 100
CC#CC(=O)Nc1cc2c(Nc3ccc(OCc4ccccn4)c(Cl)c3)ncnc2cc1OC1CCN(C)C1 (centres unmarked) [compound 67] | 10 to 20 | – | 5 to 10 | ≤ 10 | – | 10 to 20 | – | 100 to 200 | 100 to 200 | 20 to 30 | – | 5 to 10 | 20 to 30 | 50 to 100 | 50 to 100
C=CC(=O)Nc1cc2c(Nc3ccc(OCc4ccccn4)c(Cl)c3)ncnc2cc1OCCCN1CCN(C)CC1 [compound 69] | 10 to 20 | 20 to 30 | – | – | 20 to 30 | 10 to 20 | 20 to 30 | 300 to 500 | 300 to 500 | 10 to 20 | 20 to 30 | – | 10 to 20 | 20 to 30 | 20 to 30
CC#CC(=O)Nc1cc2c(Nc3ccc(OCc4ccccn4)c(Cl)c3)ncnc2cc1OCCN1CCN(C)CC1 [compound 70] | 5 to 10 | 30 to 50 | – | – | 30 to 50 | 5 to 10 | 50 to 100 | 50 to 100 | 50 to 100 | 10 to 20 | 50 to 100 | – | 10 to 20 | 5 to 10 | 5 to 10
C=CC(=O)Nc1cc2c(Nc3ccc(OCc4ccccn4)c(Cl)c3)ncnc2cc1C#CC(C)(C)N1CCCC1 [compound 84, N-(4-((3-chloro-4-(pyridin-2-ylmethoxy)phenyl)amino)-7-(3-methyl-3-(pyrrolidin-1-yl)but-1-yn-1-yl)quinazolin-6-yl)acrylamide] | 5 to 10 | 50 to 100 | – | – | 50 to 100 | 5 to 10 | 50 to 100 | 500 to 1000 | 500 to 1000 | 20 to 30 | 50 to 100 | – | 20 to 30 | 30 to 50 | 30 to 50
C=CC(=O)Nc1cc2c(Nc3ccc(OCc4ccccn4)c(Cl)c3)ncnc2cc1C#C[C@H]1CCN(C)C1 [compound 85, N-(4-((3-chloro-4-(pyridin-2-ylmethoxy)phenyl)amino)-7-((1-methylpyrrolidin-3-yl)ethynyl)quinazolin-6-yl)acrylamide] | 5 to 10 | 20 to 30 | – | – | 20 to 30 | 5 to 10 | 20 to 30 | 200 to 300 | 200 to 300 | 20 to 30 | 20 to 30 | – | 20 to 30 | 30 to 50 | 30 to 50
C=CC(=O)Nc1cc2c(Nc3ccc(OCc4ccccn4)c(Cl)c3)ncnc2cc1OCCC1(N(C)C)CC1 [compound 102, N-(4-((3-chloro-4-(pyridin-2-ylmethoxy)phenyl)amino)-7-(2-(1-(dimethylamino)cyclopropyl)ethoxy)quinazolin-6-yl)acrylamide] | 20 to 30 | 30 to 50 | – | – | 30 to 50 | 20 to 30 | 50 to 100 | 500 to 1000 | 500 to 1000 | 30 to 50 | 50 to 100 | – | 30 to 50 | 50 to 100 | 50 to 100

— patent US11034672B1, “Tyrosine kinase inhibitor compositions, methods of making and methods of use” (Black Diamond Therapeutics, Inc., priority 2018, dated 2021)
